Data taken from patent US20120135089A1, “E3 LIGASE INHIBITORS” (priority 2009, published 2012).

What was measured:
[1] = biological target: T1, Mdm2(C464A)-luciferase fusion protein (Homo sapiens, UniProt Q00987, C464A); assay: counter screen in control Mdm2(C464A)-luciferase cell line; format: cell-based
T1 construct: Using full-length Mdm2 allowed for the presence of all domains of Mdm2; expressed in transfected cells
Method: The Mdm2-luciferase cell line was seeded at 7,500 cells per well, in 384-well white plates (PerkinElmer, Waltham, Mass., Cat. No. 6007688), in 27 μl of media (DMEM with FBS and P/S). Assay plates with cells were incubated at 37° C. overnight to allow cells to adhere. After 24 hours, 2 μl from the ‘mother’ plate (4 mg/ml) was transferred to a ‘daughter plate’ containing 148 μl media in order to dilute the compound 1:75. Next, 3 μl from each well of the ‘daughter plates’ was added to triplicate assay plates for a final concentration of 5.33 μg/ml. Assay plates were incubated at 37° C. for 2 hours. Then the cells were lysed with the addition of 30 μl of luminescence buffer (PerkinElmer, Cat. No. 6016989), and the plates were incubated at room temperature for 30 minutes before being analyzed on a Victor3 Plate Reader (PerkinElmer) for luminescence. Compounds that caused an increase in luminescence greater than 30% were re-ordered for further analysis. […] This was determined by comparing the negative control, no treatment, to the positive control, 10 μM MG132. […]
The above experiments verified that the cell lines could function as a valid system to screen for Mdm2 E3 ligase inhibitors. […] All compounds were incubated with the Mdm2-luciferase cell line for 2 hours, after which relative luminescence was detected by the addition of a luminesence buffer. […]

[2] = test system: p53-Ser15 phosphorylation; assay: p53-Ser15 phosphorylation in RKO cells (Western blot); format: cell-based, human; conditions: 6 hours
Method: H1229 cells were transfected with Mdm2-Flag or remained untransfected. Cells were treated with 5 μg/ml (14 μM) MEL23, 5 μg/ml (15 μM) MEL24, 10 μM MG132, or 1 μg/ml of doxorubicin for 6 hours. Cells were lysed and analyzed by Western blotting using anti-Mdm2 and anti-actin antibodies. The lower band indicated with a star seen with the Mdm2 antibody is a non-specific band. NT indicates a no treatment control. […] RKO and RK0-E6 cells were treated with 5 μg/ml (14 μM) MEL23, 5 μg/ml (15 μM) MEL24, 10 μM MG132, 0.5 μg/ml doxorubicin, 0.5 μg/ml camptothecin or 25 μg/ml Etoposide for 6 hours. Cells were lysed and analyzed by Western blotting using anti-Mdm2, anti-p53, and anti-actin antibodies. The lower band indicated with a star seen with the anti-Mdm2 antibody is a non-specific band. […] RKO cells were treated with 5 μg/ml (14 μM) MEL23, 5 μg/ml (15 μM) MEL24, 10 μM MG132 or 2 μg/ml doxorubicin for 6 hours. Cells were lysed and analyzed by Western blotting using anti-Mdm2, anti-p53, anti-phospho-Ser15 p53, and anti-eiF4E antibodies.
Cells were seeded and treated with the indicated compound(s). Cells were lysed after each time point in a buffer of 50 mM TrisHCl pH 7.5, 200 mM NaCl, 0.5% NP-40, and 1 complete mini EDTA-free protease inhibitor cocktail tablet per 10 mL of buffer (Roche, Cat. No. 8360170). Protein content was quantified using a Biorad protein assay reagent (Bio-Rad Laboratories, Hercules, Calif., Cat. No. 500-0006). SDS sample buffer was added to the samples, and the mixture was boiled for 5 minutes. Equal amounts of protein were resolved on a 1D SDS-PAGE gel. Following separation proteins were transferred to nitrocellulose membrane, blocked with 5% milk, and then incubated with primary antibody overnight at 4° C. The membrane was incubated with secondary-HRP antibody for 45 minutes at room temperature and developed with SuperSignal West Pico Substrate (Pierce, Rockford, Ill., Cat. No. 34080).

T1 sequence (Q00987 whole entry C464A, the tested form may be a part): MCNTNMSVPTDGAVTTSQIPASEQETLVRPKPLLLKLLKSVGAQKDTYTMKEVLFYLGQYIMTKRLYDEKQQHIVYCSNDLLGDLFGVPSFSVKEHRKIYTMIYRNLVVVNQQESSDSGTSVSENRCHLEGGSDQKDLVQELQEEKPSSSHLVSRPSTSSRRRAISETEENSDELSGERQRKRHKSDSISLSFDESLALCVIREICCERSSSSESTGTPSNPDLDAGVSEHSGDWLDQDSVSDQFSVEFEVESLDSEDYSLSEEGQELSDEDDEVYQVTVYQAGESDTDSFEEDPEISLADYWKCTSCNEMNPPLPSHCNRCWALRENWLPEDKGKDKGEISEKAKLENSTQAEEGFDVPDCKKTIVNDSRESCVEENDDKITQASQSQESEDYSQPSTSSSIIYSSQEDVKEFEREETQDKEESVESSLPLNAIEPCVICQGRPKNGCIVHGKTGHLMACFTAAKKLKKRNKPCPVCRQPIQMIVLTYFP

Structure (SMILES) | luminescence of the control Mdm2(C464A)-luciferase cell line [1] | phosphorylation of p53 at serine-15 [2]
CCCCn1c(=O)[nH]c(O)c(C2NCCc3c2[nH]c2ccccc32)c1=O (stereo not shown) [MEL23] | did not significantly affect | lack of phosphorylation of p53 at serine-15
Cn1c(O)c(C2NCCc3c2[nH]c2ccccc32)c(=O)n(C)c1=O (stereo not shown) [MEL24] | did not significantly affect | lack of phosphorylation of p53 at serine-15
